Assay results published in patent publication US20250186437A1, “CARBOLINE COMPOUNDS AND USE THEREOF” (PTC Therapeutics, Inc., priority 2021, published 2025).
Structures can show the parent of a compound that is named as a salt.

Legend:
[1] = tested on: MOLM-13 cells; test: MOLM-13 Cell Proliferation Assay (indicator of DHODH inhibition); assay type: cell-based; conditions: Homo sapiens, 72 Hours of culture, CellTiter-Glo, no uridine
In short: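 Low-passage MOLM-13 cells (10^4/well) in RPMI 1640 + 10% FBS exposed to compound (0.5% DMSO final) for 72 h at 37 °C, 5% CO2. Viability read by CellTiter-Glo luminescence; growth reflects de novo pyrimidine synthesis dependent on DHODH.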

[2] = tested on: MOLM-13 cells; test: MOLM-13 Uridine Rescue Assay; assay type: cell-based; conditions: Homo sapiens; MOLM-13 cell proliferation with 100 μM Uridine added, 72 Hours of culture
Experimental: The following assay was conducted to measure proliferation of MOLM-13 cells in the presence of each compound studied. This assay was included as an indicator of DHODH inhibition, as growth of MOLM-13 cells is known to depend on synthesis of pyrimidines using the de novo pathway, which can be blocked by inhibition of DHODH. • 1. MOLM-13 cells were cultured in RPMI 1640 medium+10% Fetal Bovine Serum (FBS). Only low passage cells (<20) were used for the compound tests • 2. On day 1, Log-phase growing Molm-13 Cells were counted and diluted to 10^5 cells/mL in RPMI 1640 medium+10% FBS • 3. 100 μL of diluted MOLM-13 cells in 96 well white plates were seeded, for a final density of 10^4 cells/well. • 4. 0.5 μL of pre-diluted 200× compounds or DMSO control was added to each well. The final DMSO concentration was 0.5%. • 5. After 72 Hours of culture at 37° C., 5% CO2, the plates were taken out and cooled to RT, then 50 μL CellTiter-Glo® (Promega) was added, and the composition was mixed at RT for 10 minutes. • 6. The plates were then read by ViewLux (Speed-fast, Gain-High, Bining-1X, 5 seconds).
Several compounds were also tested in a Uridine rescue assay. In the Uridine rescue assay, using the procedure in Example 1 above, an additional plate of MOLM-13 cell cultures was prepared, to which 100 μM of Uridine was added in step 3 of the process.

Compound	IC50 [1] [nM]	IC50 [2] [nM]
Cc1nc(C)nc(N2CCc3c([nH]c4ccc(Cl)cc34)C2c2ccc(N3CCOCC3)nc2)n1 (stereo not drawn) [Compound 324, 6-chloro-2-(4,6-dimethyl-1,3,5-triazin-2-yl)-1-[6-(morpholin-4-yl)pyridin-3-yl]-2,3,4,9-tetrahydro-1H-pyrido[3,4-b]indole]	13.4	9720
Nc1c(Cl)ccc2[nH]c3c(c12)CCN(c1nccc(C(F)(F)F)n1)C3c1cnc(N2CCOCC2)nc1 (stereo not drawn) [Compound 328, 6-chloro-1-[2-(morpholin-4-yl)pyrimidin-5-yl]-2-[4-(trifluoromethyl)pyrimidin-2-yl]-2,3,4,9-tetrahydro-1H-pyrido[3,4-b]indol-5-amine]	2.9	10500
Cc1ccc(C2c3[nH]c4ccc(N(C)C)cc4c3CCN2c2nccc(C(F)(F)F)n2)c(F)c1F (stereo not drawn) [Compound 330, 1-(2,3-difluoro-4-methylphenyl)-N,N-dimethyl-2-[4-(trifluoromethyl)pyrimidin-2-yl]-2,3,4,9-tetrahydro-1H-pyrido[3,4-b]indol-6-amine]	11.3	11500
Cc1ccc(C2c3[nH]c4ccc(Cl)cc4c3CCN2c2nc(C(F)(F)F)cc(C(F)(F)F)n2)c(F)c1F (stereo not drawn) [Compound 340, 2-[4,6-bis(trifluoromethyl)pyrimidin-2-yl]-6-chloro-1-(2,3-difluoro-4-methylphenyl)-2,3,4,9-tetrahydro-1H-pyrido[3,4-b]indole]	1	15200
Cc1ccc(C2c3[nH]c4ccc(Cl)cc4c3CCN2c2nccc(C(F)(F)F)n2)cc1 (stereo not drawn) [Compound 343, 6-chloro-1-(4-methylphenyl)-2-[4-(trifluoromethyl)pyrimidin-2-yl]-2,3,4,9-tetrahydro-1H-pyrido[3,4-b]indole]	3.3	19800
Cc1nc(C)nc(N2CCc3c([nH]c4ccc(Cl)cc34)[C@@H]2c2ccc(C)c(F)c2F)n1 [Compound 347, (1S)-6-chloro-1-(2,3-difluoro-4-methylphenyl)-2-(4,6-dimethyl-1,3,5-triazin-2-yl)-2,3,4,9-tetrahydro-1H-pyrido[3,4-b]indole]	1.1	2770
Cc1nc(C)nc(N2CCc3c([nH]c4c(O)cc(Cl)cc34)C2c2ccc(C)c(F)c2F)n1 (stereo not drawn) [Compound 348, 6-chloro-1-(2,3-difluoro-4-methylphenyl)-2-(4,6-dimethyl-1,3,5-triazin-2-yl)-2,3,4,9-tetrahydro-1H-pyrido[3,4-b]indol-8-ol]	1.2	2000
Cc1cc(C)nc(N2CCc3c([nH]c4ccc(Cl)cc34)C2c2ccc(N3CCOCC3)nc2)n1 (stereo not drawn) [Compound 350, 6-chloro-2-(4,6-dimethylpyrimidin-2-yl)-1-[6-(morpholin-4-yl)pyridin-3-yl]-2,3,4,9-tetrahydro-1H-pyrido[3,4-b]indole]	4.8	14900
Cc1ccnc(N2CCc3c([nH]c4ccc(Cl)cc34)C2c2ccc(N3CCOCC3)nc2)n1 (stereo not drawn) [Compound 352, 6-chloro-2-(4-methylpyrimidin-2-yl)-1-[6-(morpholin-4-yl)pyridin-3-yl]-2,3,4,9-tetrahydro-1H-pyrido[3,4-b]indole]	8.9	6410
Cc1ccc(C2c3[nH]c4ccc(Cl)cc4c3CCN2c2nc(C)nc(C)n2)cc1 (stereo not drawn) [Compound 355, 6-chloro-2-(4,6-dimethyl-1,3,5-triazin-2-yl)-1-(4-methylphenyl)-2,3,4,9-tetrahydro-1H-pyrido[3,4-b]indole]	11.7	5660
N#Cc1ccnc(N2CCc3c([nH]c4ccc(Cl)cc34)C2c2ccc(N3CCOCC3)nc2)n1 (stereo not drawn) [Compound 356, 2-{6-chloro-1-[6-(morpholin-4-yl)pyridin-3-yl]-1,3,4,9-tetrahydro-2H-pyrido[3,4-b]indol-2-yl}pyrimidine-4-carbonitrile]	4.6	6960
FC(F)(F)c1cc(C(F)(F)F)nc(N2CCc3c([nH]c4ccc(Cl)cc34)C2c2ccc(N3CCOCC3)nc2)n1 (stereo not drawn) [Compound 357, 2-[4,6-bis(trifluoromethyl)pyrimidin-2-yl]-6-chloro-1-[6-(morpholin-4-yl)pyridin-3-yl]-2,3,4,9-tetrahydro-1H-pyrido[3,4-b]indole formate (1:1)]	0.6	9300
FC(F)(F)c1cc(C(F)(F)F)nc(N2CCc3c([nH]c4ccc(Cl)cc34)C2c2cnc(N3CCOCC3)nc2)n1 (stereo not drawn) [Compound 358, 2-[4,6-bis(trifluoromethyl)pyrimidin-2-yl]-6-chloro-1-[2-(morpholin-4-yl)pyrimidin-5-yl]-2,3,4,9-tetrahydro-1H-pyrido[3,4-b]indole formate (1:1)]	0.8	12300
N#Cc1ccnc(N2CCc3c([nH]c4ccc(Cl)cc34)C2c2cnc(N3CCOCC3)nc2)n1 (stereo not drawn) [Compound 359, 2-{6-chloro-1-[2-(morpholin-4-yl)pyrimidin-5-yl]-1,3,4,9-tetrahydro-2H-pyrido[3,4-b]indol-2-yl}pyrimidine-4-carbonitrile]	8	5670
Cc1ccc(C2c3[nH]c4ccc(Cl)cc4c3CCN2c2nc(C)cc(C(F)(F)F)n2)cc1 (stereo not drawn) [Compound 361, 6-chloro-1-(4-methylphenyl)-2-[4-methyl-6-(trifluoromethyl)pyrimidin-2-yl]-2,3,4,9-tetrahydro-1H-pyrido[3,4-b]indole]	1.8	22100
Cc1cc(C#N)nc(N2CCc3c([nH]c4ccc(Cl)cc34)C2c2cnc(N3CCOCC3)nc2)n1 (stereo not drawn) [Compound 362, 2-{6-chloro-1-[2-(morpholin-4-yl)pyrimidin-5-yl]-1,3,4,9-tetrahydro-2H-pyrido[3,4-b]indol-2-yl}-6-methylpyrimidine-4-carbonitrile]	4.3	6810
Cc1ccc(C2c3[nH]c4ccc(Cl)cc4c3CCN2c2nccc(C#N)n2)c(F)c1F (stereo not drawn) [Compound 363, 2-[6-chloro-1-(2,3-difluoro-4-methylphenyl)-1,3,4,9-tetrahydro-2H-pyrido[3,4-b]indol-2-yl]pyrimidine-4-carbonitrile]	3.2	10300
CN1CCN(c2ncc(C3c4[nH]c5ccc(Cl)cc5c4CCN3c3nccc(C(F)(F)F)n3)cn2)CC1 (stereo not drawn) [Compound 369, 6-chloro-1-[2-(4-methylpiperazin-1-yl)pyrimidin-5-yl]-2-[4-(trifluoromethyl)pyrimidin-2-yl]-2,3,4,9-tetrahydro-1H-pyrido[3,4-b]indole]	4.5	5020
Cc1cc(C(F)(F)F)nc(N2CCc3c([nH]c4ccc(Cl)cc34)C2c2ccc(N3CCOCC3)nc2)n1 (stereo not drawn) [Compound 372, 6-chloro-2-[4-methyl-6-(trifluoromethyl)pyrimidin-2-yl]-1-[6-(morpholin-4-yl)pyridin-3-yl]-2,3,4,9-tetrahydro-1H-pyrido[3,4-b]indole]	1.6	16400
Cc1cc(C(F)(F)F)nc(N2CCc3c([nH]c4ccc(Cl)cc34)C2c2cnc(N3CCOCC3)nc2)n1 (stereo not drawn) [Compound 374, 6-chloro-2-[4-methyl-6-(trifluoromethyl)pyrimidin-2-yl]-1-[2-(morpholin-4-yl)pyrimidin-5-yl]-2,3,4,9-tetrahydro-1H-pyrido[3,4-b]indole]	1.6	8840
CN1CCN(c2ncc(C3c4[nH]c5ccc(Cl)cc5c4CCN3c3nc(C(F)(F)F)cc(C(F)(F)F)n3)cn2)CC1 (stereo not drawn) [Compound 381, 2-[4,6-bis(trifluoromethyl)pyrimidin-2-yl]-6-chloro-1-[2-(4-methylpiperazin-1-yl)pyrimidin-5-yl]-2,3,4,9-tetrahydro-1H-pyrido[3,4-b]indole]	0.7	4290
Cc1ccc([C@H]2c3[nH]c4ccc(Cl)cc4c3CCN2c2nc(C(F)(F)F)nc(C(F)(F)F)n2)c(F)c1F [Compound 387, (1S)-2-[4,6-bis(trifluoromethyl)-1,3,5-triazin-2-yl]-6-chloro-1-(2,3-difluoro-4-methylphenyl)-2,3,4,9-tetrahydro-1H-pyrido[3,4-b]indole]	0.2	7660
FC(F)(F)c1nc(N2CCc3c([nH]c4ccc(Cl)cc34)C2c2cnc(N3CCOCC3)nc2)nc(C(F)(F)F)n1 (stereo not drawn) [Compound 388, 2-[4,6-bis(trifluoromethyl)-1,3,5-triazin-2-yl]-6-chloro-1-[2-(morpholin-4-yl)pyrimidin-5-yl]-2,3,4,9-tetrahydro-1H-pyrido[3,4-b]indole]	0.3	6640
N#Cc1cc(C#N)nc(N2CCc3c([nH]c4ccc(Cl)cc34)[C@@H]2c2cnc(N3CCOCC3)nc2)n1 [Compound 398, 2-{(1S)-6-chloro-1-[2-(morpholin-4-yl)pyrimidin-5-yl]-1,3,4,9-tetrahydro-2H-pyrido[3,4-b]indol-2-yl}pyrimidine-4,6-dicarbonitrile]	10.6	720
